Data on one compound can be found in patent US4690935A, “Inhibition of tumor growth and metastasis with calcium channel blocker compounds” (Wayne State University, priority 1983, dated 1987).

The test system of one assay is B16a Tumor Cells. In words: 3H-thymidine incorporation into DNA of cultured B16a tumor cells. The assay is classed as cell-based, mouse. Particulars: for effect on 3H-thymidine incorporation (in words): B16a tumor cell DNA. As to the method: ^3 H-thymidine incorporation studies were designed to measure the effects of BAY e 9736, nimodipine on the incorporation of ^3 H-thymidine into the DNA of B16a tumor cells. One ml of cultured B16a tumor cells (in MEM+10% fetal calf serum) at 1×10^5 cells/ml are placed into plastic incubation tubes. The cells are incubated for 15 minutes at 37° C. in the presence of five microliters of dilutent (DMSO, dimethyl sulfoxide) alone or dilutent containing BAY e 9736. After 15 minutes, which is considered the preincubation period, the cells are incubated for one hour (at 37° C.) in the presence of one microcurie (per ml) ^3 H-thymidine. The assay is terminated by the addition of one milliliter of cold trichloroacetic acid, TCA, (6% w/v). The cells are centrifuged at 10,000×g ×4 minutes. The supernatant is discarded. The resulting pellet is resuspended in one milliliter of TCA, vortexed and then repelleted by centrifugation at 10,000 ×g ×4 minutes. The supernatant is discarded. The pellets are resuspended in 100 microliters of tissue solubilizing fluid (NCS from Amersham Corporation) and incubated for 2 hours at 50° C. Fifty microliter aliquots of the solubilized pellets are transferred into plastic scintillation vials containing 3 milliliters of scintillation fluid (Econofluor, New England Nuclear), allowed to cool and dark adjust, and counted.
A variation of the previously described experiment was used to determine the effects of BAY e 9736 on a different parameter of tumor cell proliferation, the replication of deoxyribonucleic acid (DNA) as measured by the incorporation of ^3 H-thymidine into tumor cell DNA. B16a tumor cells were grown in T-75 flasks and removed using trypsin, as previously described for Walker 256 L-Pam tumor cells. The B16a cells are quenched, washed, and resuspended in media (MEM+10% fetal calf serum, FCS) to a concentration of 1×10^5 cells/ml. One milliliter of tumor cells are placed into 5 ml plastic incubation tubes, and five microliters of media, dilutant, or dilutant containing 8, 4, or 2 milligram/ml BAY e 9736 are added to appropriate tubes. The assay was run, terminated, and the B16a tumor cell DNA extracted and counted as previously described.
Protocol same as previously described except nifedipine (40 mg) is first dissolved in absolute ethanol (0.5 ml) and then diluted with PEG-400 (1.5 ml) to a final concentration of 20 mg/ml. One microliter of the 20 mg/ml nifedipine solution was added to one ml of B16a tumor cells (for final concentration of 20 micrograms/ml). Nimodipine was dissolved as previously described.
A general note: Uptake of a labelled nucleoside into DNA is a usual measure of proliferation.

The subject of assay [1] is Walker 256 L-Pam tumor cell. In words: Walker 256 L-Pam tumor cell attachment to plastic. The assay is classed as cell-based, rat. Particulars: 0.04 mg/ml; for effect on tumor cell adhesion to plastic wells (in words): thirty minutes preincubation; for inhibition at 40 µg/mL: Rattus norvegicus, Walker 256, 1 h, 1 h plating, read-out: % Inhibition vs control (attachment to plastic). Here is the method: Walker ^256 L-Pam tumor cells were plated at approximately 5×10^5 cells/flask. The cells were labelled with ^125 I-UDR (iodinated uridine deoxyribonucleic acid) at 0.5 microcuries/ml media (5.0 microcurie/flask). Cells were incubated for approximately 24 hours and the cell count/flask was determined to be 8.14×10^5 cell/flask. The cells from each flask were counted (gamma counter) and found to have an average of 0.24 cpm/cell.
Platelet enhanced tumor cell attachment to plastic was tested using four conditions: tumor cell alone (Condition A), tumor cells plus washed platelets (Condition B), tumor cells plus platelet poor plasma (Condition C) and tumor cells, washed platelets and platelet poor plasma (Condition D).
Walker 256 L-Pam tumor cells obtained from culture are radiolabeled with ^125 I-UDR as described previously. The radiolabeled cells are removed from T-75 flasks with trypsin (2 milliliters of 0.25% trypsin and 0.01% EDTA) in MEM. After two minutes, the flasks are washed 3X with trypsin "quench," 10% fetal calf serum in MEM, to quench and remove the trypsin in order to prevent cell lysis. The tumor cells are removed from the flasks in MEM and adjusted to 2.5×10^5 cells /milliliter. One hundred microliters of the tumor cell suspension (2.5×10^4 cells) were plated in […] tissue culture wells (Costar) and overlaid with 250 microliters of Wash Solution #2 (see Platelet Prep). The cells were incubated at room temperature (approximately 22° C.) for 5 minutes. Following this incubation 10 microliters of 7.35 mg/ml CaCl2 were added to the culture wells, 10 microliters of platelet poor plasma (diluted 1:32 with platelet Wash Solution #2) were added to culture wells for Conditions C and D and 250 microliters of washed platelets (3×10^8 /ml final concentration) were added to culture wells for Conditions B and D. Where appropriate, Wash Solution #2 was added to wells (Conditions A and C) so that all wells had the same final volume of solutions. The wells were incubated for one hour at 37° C. After the one hour incubation, the media containing any unattached tumor cells were removed by aspiration and then the wells were washed 2X with 1 ml of sodium phosphate buffer (PBS). The adhering cells were removed by trypsinization (as described above) and counts per wells determined using a gamma counter. Results were determined as total cpm plated per well.
The effect of BAY e 9736 on Walker 256 L-Pam tumor cell adhesion to plastic wells […] was determined by pretreating monodispersed Walker 256 L-Pam tumor cells with BAY e 9736 dissolved in DMSO prior to plating the cells. Except for the pretreatment, plastic adhesion studies were performed as previously described in the literature. A 8 mg sample of BAY e 9736 was dissolved in 1 ml of DMSO. Five microliters of the 8 mg/ml BAY e 9736 was added to each 1 ml of tumor cells.

Entries after “also recorded” stand apart in the source; their conditions may differ. Where two headings read alike, the source gives them in different places.

As a reminder, the inhibition is how much of the control response was suppressed. As to `COCCOC(=O)C1=C(C)NC(C)=C(C(=O)OC(C)C)C1c1cccc([N+](=O)[O-])c1` (stereo not drawn) [BAY e 9736, 1,4-dihydro-2,6-dimethyl-4-(3' nitrophenyl)-pyridine-3-(beta-methyoxyethylester)-5-(isopropyl ester)], the “effect on 3H-thymidine incorporation (in words)” value is listed as “inhibited the incorporation of ^3 H-thymidine into the tumor cell DNA” in the assay on B16a Tumor Cells and “decreases the rate of incorporation of ^3 H-thymidine into tumor cell DNA” in the assay with B16a Tumor Cells (listed as nimodipine). Also, the activity at 10 µg/mL in the assay on B16a Tumor Cells (Mus musculus, .01 mg/ml, 15 min preincubation, 1 hour incorporation, x ± SEM, n = 4, read-out: % of Control Tumor Cell Incorporation (3H-thymidine)) was found to be 77 ± 2.5%. The activity at 20 µg/mL in the assay on B16a Tumor Cells (Mus musculus, .02 mg/ml, 15 min preincubation, 1 hour incorporation, x ± SEM, n = 4, read-out: % of Control Tumor Cell Incorporation (3H-thymidine)) is 56 ± 3.5%. The activity at 40 µg/mL in the assay on B16a Tumor Cells (Mus musculus, .04 mg/ml, 15 min preincubation, 1 hour incorporation, x ± SEM, n = 4, read-out: % of Control Tumor Cell Incorporation (3H-thymidine)) was found to be 38 ± 4%. For the same compound, the “effect on tumor cell adhesion to plastic wells (in words)” value in assay [1] was “decreased the percent of cells adhering to the plastic wells; also recorded: significant in all groups tested”; in assay [1] (listed as nimodipine) it was “decreases or inhibits the adhesion of tumor cells to plastic incubation wells”. The inhibition at 40 µg/mL in assay [1] (A = tumor cells alone) amounted to 72%; in assay [1] (B = tumor cells + platelets), 50 ± 8.2%; in assay [1] (C = tumor cells + PPP), 44 ± 9.2%; in assay [1] (D = tumor cells + PPP + platelets) it was 40 ± 7.5%.
